From publication PMC4446620, “Bioactive Metabolites from Mangrove Endophytic Fungus Aspergillus sp. 16-5B” (Marine Drugs, 2015) come the findings set out here.

“Also recorded” adds a separate entry of the source.

One series addresses α-glucosidase (Saccharomyces cerevisiae, UniProt P53341). The experiment in a line: Assay for α-glucosidase inhibitory activity. It counts as biochemical. To be noted: for inhibitory effect against α-glucosidase compared with acarbose, in words: versus the clinical α-glucosidase inhibitor acarbose. Here is the method:
All of the tests for α-glucosidase inhibitory activity were according to a previously described method. […] The reaction was monitored spectrophotometrically by measuring the absorbance at 400 nm for 1-min intervals. […] The IC50 values of the compounds were calculated by nonlinear regression analysis and expressed as the mean ± SD of two distinct experiments. Kinetic parameters were determined using the Lineweaver-Burk double-reciprocal plot method at increasing concentrations of substrates and inhibitors.

Chain of α-glucosidase (P53341 whole entry): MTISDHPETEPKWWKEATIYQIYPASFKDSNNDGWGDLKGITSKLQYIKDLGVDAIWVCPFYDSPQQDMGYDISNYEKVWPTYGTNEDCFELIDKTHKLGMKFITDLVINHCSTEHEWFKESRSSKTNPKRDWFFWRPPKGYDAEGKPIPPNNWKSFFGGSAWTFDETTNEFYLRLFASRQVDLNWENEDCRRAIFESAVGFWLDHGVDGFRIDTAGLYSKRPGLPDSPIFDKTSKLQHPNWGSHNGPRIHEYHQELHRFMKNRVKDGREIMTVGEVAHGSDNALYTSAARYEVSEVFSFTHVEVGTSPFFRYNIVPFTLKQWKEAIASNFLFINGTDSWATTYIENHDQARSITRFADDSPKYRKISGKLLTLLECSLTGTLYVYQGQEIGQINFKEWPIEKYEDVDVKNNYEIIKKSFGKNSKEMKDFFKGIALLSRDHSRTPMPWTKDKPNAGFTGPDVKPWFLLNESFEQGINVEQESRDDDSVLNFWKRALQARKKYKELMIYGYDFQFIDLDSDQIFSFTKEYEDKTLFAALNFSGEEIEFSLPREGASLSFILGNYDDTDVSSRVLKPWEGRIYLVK

Take `CC=Cc1cc2c(o1)C(=O)C(C)(OC(=O)c1c(C)cc(O)cc1O)C(O)C2` (stereo not shown) [Compound 1, aspergifuranone]: the melting point – broadly, the temperature of the solid-liquid transition – was in the range of 121.1 to 121.6 °C. Also, the “inhibition type of α-glucosidase (kinetic analysis)” value at α-glucosidase (Lineweaver-Burk plot method) is on record as “noncompetitive inhibitor; also recorded: noncompetitive inhibition”. Besides, the “inhibitory effect against α-glucosidase compared with acarbose, in words” value at α-glucosidase was “more potent inhibitory effects”.

In turn, `COC1(C)OC(=O)c2c(cc(O)c(C)c2O)C1O` (stereo not shown) [Compound 2] yielded a melting point of 174.4 to 174.9 °C. Moreover, at α-glucosidase, the “α-glucosidase inhibitory activity, in words” value is listed as “moderate inhibitory activities” and the “inhibitory effect against α-glucosidase compared with acarbose, in words” value was “more potent inhibitory effects”.

As for `COC1(C)OC(=O)c2c(cc(O)c(C)c2O)C1=O` (stereo not shown) [Compound 3], the melting point lay in the range of 134.2 to 134.8 °C.

In turn, `CCC[C@@]1(O)OC(=O)c2c1cc(O)c(O)c2C` [Compound 4, (R)-3-demethylpurpurester A] showed a melting point of 201.2 to 201.9 °C.

Regarding `Cc1c(O)cc2c(c1O)C(=O)O[C@@H]2[C@H](C)O` [Compound 6, pestaphthalides A], at α-glucosidase, the “α-glucosidase inhibitory activity, in words” value is given as “moderate inhibitory activities” and the “inhibitory effect against α-glucosidase compared with acarbose, in words” value is on record as “more potent inhibitory effects”.
